Tests used:
Test in all cases: relative viability (nuclei count vs DMSO), 5 days (fraction); higher = more cells survive
[1] = compound: O=C(Nc1c[nH]nc1-c1nc2ccc(CN3CCOCC3)cc2[nH]1)NC1CC1 [AT9283] + CS(=O)(=O)N1CCN(Cc2cc3nc(-c4cccc5[nH]ncc45)nc(N4CCOCC4)c3s2)CC1 [Pictilisib] (partner 1 µM)
In short: (§1)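 Values are medians from duplicate plates. Each reflects relative viability, defined as the nuclei count of treated wells over that of vehicle wells. Lung cancer cell lines in 1536-well plates were pin-tool dosed one day after seeding with one drug alone or with a fixed anchor-drug dose plus five library-drug doses (not always all listed) in √10 steps, then fixed, stained and imaged at 4× after 5 days.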

[2] = compound: C#Cc1cccc(Nc2ncnc3cc(OCCOC)c(OCCOC)cc23)c1 [Erlotinib] + Nc1ncn([C@H]2C[C@H](O)[C@@H](CO)O2)c(=O)n1 [Decitabine] (partner 2 µM)
In short: as §1

[3] = compound: O=C(Nc1c[nH]nc1-c1nc2ccc(CN3CCOCC3)cc2[nH]1)NC1CC1 [AT9283] + CC(=O)c1c(C)c2cnc(Nc3ccc(N4CCNCC4)cn3)nc2n(C2CCCC2)c1=O [Palbociclib] (partner 0.5 µM)
In short: as §1

[4] = compound: O=C(Nc1c[nH]nc1-c1nc2ccc(CN3CCOCC3)cc2[nH]1)NC1CC1 [AT9283] + NC(=O)Nc1cc(-c2cccc(F)c2)sc1C(=O)N[C@H]1CCCNC1 [AZD7762] (partner 0.2 µM)
In short: as §1

[5] = compound: C#Cc1cccc(Nc2ncnc3cc(OCCOC)c(OCCOC)cc23)c1 [Erlotinib] + Nc1nc2[nH]cc(CCc3ccc(C(=O)N[C@@H](CCC(=O)O)C(=O)O)cc3)c2c(=O)[nH]1 [Pemetrexed] (partner 0.2 µM)
In short: as §1

Cell Line	relative viability ([1]; first compound 0.003 µM)	relative viability ([1]; first compound 0.03 µM)	relative viability ([1]; first compound 0.09487 µM)	relative viability ([1]; first compound 0.3 µM)	relative viability ([2]; first compound 0.02 µM)	relative viability ([2]; first compound 0.2 µM)	relative viability ([2]; first compound 0.6325 µM)	relative viability ([2]; first compound 2 µM)	relative viability ([3]; first compound 0.003 µM)	relative viability ([3]; first compound 0.03 µM)	relative viability ([3]; first compound 0.09487 µM)	relative viability ([3]; first compound 0.3 µM)	relative viability ([4]; first compound 0.003 µM)	relative viability ([4]; first compound 0.03 µM)	relative viability ([4]; first compound 0.09487 µM)	relative viability ([4]; first compound 0.3 µM)	relative viability ([5]; first compound 0.02 µM)	relative viability ([5]; first compound 0.2 µM)	relative viability ([5]; first compound 0.6325 µM)	relative viability ([5]; first compound 2 µM)
A549	0.503	0.0938	0.0787	0.0772	0.263	0.294	0.266	0.262	–	–	–	–	–	–	–	–	–	–	–	–
ABC-1	0.76	0.269	0.232	0.256	–	0.962	0.923	1.12	0.664	0.381	0.295	0.325	0.83	0.365	1.18	0.229	–	–	–	–
CAL-12T	0.354	0.297	0.23	0.31	–	–	–	–	0.543	0.257	0.165	0.217	0.584	0.502	0.347	0.189	1.43	1.15	0.929	0.662
COR-L23	0.83	0.132	0.107	0.123	0.425	0.432	0.49	0.434	0.286	0.141	0.11	0.121	–	–	–	–	0.205	0.178	0.195	0.19
COR-L 105	0.405	0.273	0.279	0.28	0.729	0.463	0.41	0.351	0.392	0.327	0.328	0.286	–	–	–	–	0.967	0.835	0.535	0.352
Calu-6	0.932	0.242	0.227	0.194	–	–	–	–	–	–	–	–	–	–	–	–	–	–	–	–
EBC-1	0.368	0.158	0.149	0.124	–	–	–	–	–	–	–	–	–	–	–	–	–	–	–	–
IA-LM	0.379	0.271	0.143	0.143	–	–	–	–	–	–	–	–	–	–	–	–	–	–	–	–
NCI-H520	0.259	0.247	0.216	0.171	0.593	0.504	0.519	0.564	0.238	0.2	0.142	0.127	–	–	–	–	0.847	0.749	–	0.609
NCI-H596	0.391	0.415	0.412	0.373	1.21	0.926	0.999	0.985	–	–	–	–	1.01	1.2	0.976	0.595	0.609	0.455	0.489	0.457
NCI-H661	0.296	0.382	0.334	0.292	0.566	–	0.551	0.384	0.44	0.368	0.329	0.368	–	–	–	–	0.925	0.841	0.838	0.828
NCI-H727	0.379	0.395	0.225	0.167	0.898	0.596	0.92	0.731	0.583	0.626	0.514	0.428	0.684	0.574	0.37	0.383	–	–	–	–
NCI-H1299	0.731	0.238	0.116	0.112	–	–	–	–	–	–	–	–	–	–	–	–	–	–	–	–
NCI-H1563	0.572	0.606	0.585	0.54	–	–	–	–	–	–	–	–	–	–	–	–	0.659	0.83	0.92	–
NCI-H1650	0.586	0.273	0.178	0.218	0.331	0.365	0.509	0.421	0.38	0.404	0.242	0.237	–	–	–	–	0.337	0.324	0.352	0.298
NCI-H1703	0.234	0.216	0.205	0.196	–	–	–	–	–	–	–	–	0.12	0.108	0.0955	0.106	–	–	–	–
NCI-H2009	0.774	0.462	0.239	0.0896	0.333	0.347	0.35	0.374	0.235	0.174	0.0777	0.032	–	–	–	–	1.07	0.999	1.01	1.04
NCI-H2023	0.216	0.106	0.0878	0.111	0.247	0.222	0.251	0.24	0.417	0.327	0.258	0.139	–	–	–	–	0.226	0.211	0.174	0.184
NCI-H2228	0.355	0.259	0.141	0.0664	–	–	–	–	0.588	0.492	0.351	0.149	–	–	–	–	0.335	0.295	0.362	0.337
SK-LU-1	0.603	0.348	0.217	0.197	0.661	0.707	0.634	0.592	0.416	0.373	0.279	0.283	–	–	–	–	1.07	1.01	1.05	–
SK-MES-1	0.345	0.314	0.158	0.147	0.393	0.345	0.31	0.27	0.365	0.311	0.255	0.2	–	–	–	–	1.07	0.519	0.545	0.418
SW 1573	0.453	0.251	0.2	0.127	–	0.511	0.495	0.576	0.333	0.158	0.173	0.121	–	–	–	–	0.886	0.746	0.865	0.805
UMC-11	0.805	0.114	0.111	0.191	0.652	0.597	0.636	0.567	0.327	0.235	0.243	0.186	–	–	–	–	0.759	0.746	0.851	0.668
